# Reference: PubChem BioAssay AID2060503 (Molecular Pharmacology Branch, DTP, NCI, 2025)
# “And” between values parts separate entries of the source, which are not always exact repeats. Equal entries are not always repeated.
# Tested on: 817829-284-R-J1-PDC complex spheroids, viability
# Assay: Anticancer human tumor 817829-284-R-J1-PDC patient-derived colon adenocarcinoma cell line growth inhibition [GQUAD]
# Conditions: for viability, T/C: stronger effect = lower value
# Source text: DNA G-quadruplex Stabilizer Agents in Combinations in Complex Spheroids
# A high-throughput screen of multi-cell type tumor spheroids was designed to identify active combinations of DNA G-quadruplex stabilizer agents and targeted small molecules. Complex spheroids include a stromal component modeled by human endothelial cells (HUVEC) and fibroblasts modeled by human mesenchymal stem cells (MSCs). The concentration ranges selected for each drug and investigational agent were based upon clinically achievable concentrations if the clinical Cmax of the agent was known.
# Compounds. The drugs and investigational agents: pidnarulex (CX-5461; NSC782164), APTO-253 (NSC789042), BRACO-19 (NSC847499), peposertib (NSC802822), ceralasertib (NSC780249), elimusertib (NSC800525), camonsertib (NSC841442), AZD-1390 (NSC803789), olaparib (NSC753686), talazoparib (NSC767125), ART-558 (NSC835418), sotorasib (NSC818433), MRTX-1133 (NSC836407), SN-38 (NSC673596), topotecan (NSC609699), etoposide (NSC141540), doxorubicin (NSC123127), gemcitabine (NSC613327), 5-fluorouracil (NSC19893), paclitaxel (NSC125973), vemurafenib (NSC761431), panobinostat (NSC761190), R-306465 (JNJ-16241199; NSC773264), adavosertib (NSC754352), TP-3654 (NSC805149), carboplatin (NSC241240), KSQ-4279 (NSC840948), and staurosporine (NSC755774) were obtained from the National Cancer Institute (NCI) Developmental Therapeutics Program Chemical Repository (34). The FDA-approved anticancer drug set is available from the NCI Developmental Therapeutics Program. […] The stock solutions were prepared in dimethyl sulfoxide (DMSO, Sigma-Aldrich, St. Louis, MO, cat. D2650) at 800-fold the tested concentration and stored at -70 degrees C prior to their use. All drugs and investigational agents were tested over a range starting from a high concentration at or near the clinical Cmax and decreasing in half-log increments. If the clinical Cmax for an agent had not been determined, the highest concentration tested was 10 microM.
# 2.3 Cell Culture. All cells were maintained in an incubator at 37 degrees C and 5% CO2 with 95% humidity. The PDC lines were cultured according to standard operating procedures established by the NCI PDMR. All PDCs were thawed and cultured in Matrigel-coated flasks prepared with a working solution of 1X Ham's F-12 nutrient mix, without supplementation (Invitrogen, cat. 11765054), 100 U/mL penicillin-streptomycin (Invitrogen, cat. 15140122), and 2.5% Matrigel (Corning Inc., cat. 354248) for the first three passages. The 857933-349-R-J2-PDC line was cultured in 6C/Colon 1B media, which includes advanced DMEM/F-12 (Thermo Fisher Scientific, cat. 12634028), 10 mM HEPES (Thermo Fisher Scientific, cat. 15630080), 1X GlutaMAX supplement (Thermo Fisher Scientific, cat. 35050061), 0.1 mg/mL primocin (InvivoGen, cat. ant-pm-2), 10% defined fetal bovine serum, heat inactivated (HyClone Laboratories Inc., cat. SH30070.03HI), 50% L-WRN conditioned media (ATCC, cat. CRL-3276), 1.25 mM N-Acetyl-L-cysteine (Sigma-Aldrich, cat. A9165), 10 mM nicotinamide (Sigma-Aldrich, cat. N0636), 1X B-27 supplement (Thermo Fisher Scientific, cat. 17504044), 1X N-2 supplement (Thermo Fisher Scientific, cat. 17502048), 10 microM Y-27632 dihydrochloride (Tocris Bioscience, cat. 1254), and 50 ng/mL human EGF recombinant protein (Thermo Fisher Scientific, cat. PHG0311). The 485176-168-R4-J1-PDC line was cultured in Panc media, which includes all 6C/Colon 1B media components plus 100 ng/mL human FGF-10 (Thermo Fisher Scientific, cat. 100-26), 500 nM SB-431542 (Selleckchem, cat. S1067), and gastrin (Tocris, cat. 3006).
# […]
# [1] = curve of first compound, second compound 0.0316 µM
# [2] = curve of first compound, second compound 0.1 µM
# [3] = curve of first compound, second compound 0.316 µM
# [4] = curve of first compound, second compound 1 µM
# [5] = curve of first compound, second compound 3.16 µM
# [6] = curve of first compound, second compound 10 µM
# [7] = second compound 0.0316 µM, first compound 0.0316 µM
# [8] = second compound 0.0316 µM, first compound 0.1 µM
# [9] = second compound 0.0316 µM, first compound 0.316 µM
# [10] = second compound 0.0316 µM, first compound 1 µM
# [11] = second compound 0.0316 µM, first compound 3.16 µM
# [12] = second compound 0.0316 µM, first compound 10 µM
# [13] = second compound 0.1 µM, first compound 0.0316 µM
# [14] = second compound 0.1 µM, first compound 0.1 µM
# [15] = second compound 0.1 µM, first compound 0.316 µM
# [16] = second compound 0.1 µM, first compound 1 µM
# [17] = second compound 0.1 µM, first compound 3.16 µM
# [18] = second compound 0.1 µM, first compound 10 µM
# [19] = second compound 0.316 µM, first compound 0.0316 µM
# [20] = second compound 0.316 µM, first compound 0.1 µM
# [21] = second compound 0.316 µM, first compound 0.316 µM
# [22] = second compound 0.316 µM, first compound 1 µM
# [23] = second compound 0.316 µM, first compound 3.16 µM
# [24] = second compound 0.316 µM, first compound 10 µM
# [25] = second compound 1 µM, first compound 0.0316 µM
# [26] = second compound 1 µM, first compound 0.1 µM
# [27] = second compound 1 µM, first compound 0.316 µM
# [28] = second compound 1 µM, first compound 1 µM
# [29] = second compound 1 µM, first compound 3.16 µM
# [30] = second compound 1 µM, first compound 10 µM
# [31] = second compound 3.16 µM, first compound 0.0316 µM
# [32] = second compound 3.16 µM, first compound 0.1 µM
# [33] = second compound 3.16 µM, first compound 0.316 µM
# [34] = second compound 3.16 µM, first compound 1 µM
# [35] = second compound 3.16 µM, first compound 3.16 µM
# [36] = second compound 3.16 µM, first compound 10 µM
# [37] = second compound 10 µM, first compound 0.0316 µM
# [38] = second compound 10 µM, first compound 0.1 µM
# [39] = second compound 10 µM, first compound 0.316 µM
# [40] = second compound 10 µM, first compound 1 µM
# [41] = second compound 10 µM, first compound 3.16 µM
# [42] = second compound 10 µM, first compound 10 µM
# 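Also: spheroids exposed to agents for 7 days before readout.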
# 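For viability, T/C in this document: percent viability relative to DMSO vehicle control taken as 100%.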
smiles,measurement,setting,value
CC1COCCN1c1cc(C2(S(C)(=N)=O)CC2)nc(-c2ccnc3[nH]ccc23)n1 (stereo not given),"viability, T/C",compound 0.0316 µM,112% and 93.9% and 91.7%
same,"viability, T/C",compound 0.1 µM,89.1% and 102% and 105%
same,"viability, T/C",compound 0.316 µM,93.1% and 88.9% and 90%
same,"viability, T/C",compound 1 µM,24.1% and 27.1% and 31.6%
same,"viability, T/C",compound 3.16 µM,11% and 9.68% and 11.2%
same,"viability, T/C",compound 10 µM,8.31% and 9.22% and 9.36%
same,IC50,curve of compound,649 nM and 654 nM and 697 nM
CC(C)n1c(=O)n(C)c2cnc3cc(F)c(-c4ccc(OCCCN5CCCCC5)nc4)cc3c21 + Cc1[nH]c2ccc(F)cc2c1-c1nc2c3cccnc3c3ncccc3c2[nH]1,IC50,[1],> 10000 nM
same,IC50,[2],> 10000 nM
same,IC50,[3],> 10000 nM
same,IC50,[4],7830 nM
same,IC50,[5],4570 nM
same,IC50,[6],549 nM
same,"viability, T/C",[7],120%
same,"viability, T/C",[8],82.6%
same,"viability, T/C",[9],84.8%
same,"viability, T/C",[10],94.4%
same,"viability, T/C",[11],104%
same,"viability, T/C",[12],94.9%
same,"viability, T/C",[13],90.8%
same,"viability, T/C",[14],106%
same,"viability, T/C",[15],95.8%
same,"viability, T/C",[16],107%
same,"viability, T/C",[17],107%
same,"viability, T/C",[18],117%
same,"viability, T/C",[19],79.7%
same,"viability, T/C",[20],99.8%
same,"viability, T/C",[21],103%
same,"viability, T/C",[22],103%
same,"viability, T/C",[23],117%
same,"viability, T/C",[24],103%
same,"viability, T/C",[25],87.5%
same,"viability, T/C",[26],104%
same,"viability, T/C",[27],120%
same,"viability, T/C",[28],102%
same,"viability, T/C",[29],115%
same,"viability, T/C",[30],35%
same,"viability, T/C",[31],76.6%
same,"viability, T/C",[32],90.9%
same,"viability, T/C",[33],64.6%
same,"viability, T/C",[34],78%
same,"viability, T/C",[35],69.8%
same,"viability, T/C",[36],7.73%
same,"viability, T/C",[37],65.2%
same,"viability, T/C",[38],73.3%
same,"viability, T/C",[39],49.2%
same,"viability, T/C",[40],46.5%
same,"viability, T/C",[41],21.9%
same,"viability, T/C",[42],5.4%
C#Cc1c(F)ccc2cc(O)cc(-c3ncc4c(N5CC6CCC(C5)N6)nc(OCC56CCCN5CC(F)C6)nc4c3F)c12 (stereo not given),"viability, T/C",compound 0.0316 µM,103% and 97.4% and 94.3%
same,"viability, T/C",compound 0.1 µM,88.4% and 96.9% and 109%
same,"viability, T/C",compound 0.316 µM,99.2% and 102% and 103%
same,"viability, T/C",compound 1 µM,84.3% and 102% and 93.9%
same,"viability, T/C",compound 3.16 µM,110% and 95.8% and 102%
same,"viability, T/C",compound 10 µM,114% and 104% and 131%
same,IC50,curve of compound,> 10000 nM
CC1COCCN1c1cc(-c2ccnn2C)c2ccnc(-c3ccn[nH]3)c2n1 (stereo not given) + CN(C)c1ccc(Nc2c3ccc(NC(=O)CCN4CCCC4)cc3nc3cc(NC(=O)CCN4CCCC4)ccc23)cc1,IC50,[1],< 31.6 nM
same,IC50,[2],< 31.6 nM
same,IC50,[3],< 31.6 nM
same,IC50,[4],< 31.6 nM
same,IC50,[5],< 31.6 nM
same,IC50,[6],< 31.6 nM
same,"viability, T/C",[7],49.1%
same,"viability, T/C",[8],21.1%
same,"viability, T/C",[9],10.9%
same,"viability, T/C",[10],7.46%
same,"viability, T/C",[11],6.76%
same,"viability, T/C",[12],6.4%
same,"viability, T/C",[13],43.7%
same,"viability, T/C",[14],19.4%
same,"viability, T/C",[15],9.94%
same,"viability, T/C",[16],7.09%
same,"viability, T/C",[17],6.81%
same,"viability, T/C",[18],5.85%
same,"viability, T/C",[19],41.3%
same,"viability, T/C",[20],20.7%
same,"viability, T/C",[21],9.46%
same,"viability, T/C",[22],9.2%
same,"viability, T/C",[23],6.26%
same,"viability, T/C",[24],5.57%
same,"viability, T/C",[25],45.9%
same,"viability, T/C",[26],19.1%
same,"viability, T/C",[27],9.31%
same,"viability, T/C",[28],8.05%
same,"viability, T/C",[29],7.11%
same,"viability, T/C",[30],5.77%
same,"viability, T/C",[31],36.6%
same,"viability, T/C",[32],16.5%
same,"viability, T/C",[33],9.69%
same,"viability, T/C",[34],9.19%
same,"viability, T/C",[35],7.57%
same,"viability, T/C",[36],5.75%
same,"viability, T/C",[37],25%
same,"viability, T/C",[38],16.9%
same,"viability, T/C",[39],8.98%
same,"viability, T/C",[40],6.93%
same,"viability, T/C",[41],5.14%
same,"viability, T/C",[42],3.02%
O=c1[nH]cc(F)c(=O)[nH]1 + Cc1cnc(CNC(=O)c2c(=O)c3ccc(N4CCCN(C)CC4)nc3n3c2sc2ccccc23)cn1,IC50,[1],799 nM
same,IC50,[2],< 31.6 nM
same,IC50,[3],< 31.6 nM
same,IC50,[4],< 31.6 nM
same,IC50,[5],< 31.6 nM
same,IC50,[6],< 31.6 nM
same,"viability, T/C",[7],91.4%
same,"viability, T/C",[8],75.3%
same,"viability, T/C",[9],77.6%
same,"viability, T/C",[10],43%
same,"viability, T/C",[11],37.6%
same,"viability, T/C",[12],33%
same,"viability, T/C",[13],29.9%
same,"viability, T/C",[14],41.6%
same,"viability, T/C",[15],34.2%
same,"viability, T/C",[16],35.5%
same,"viability, T/C",[17],29.1%
same,"viability, T/C",[18],25.7%
same,"viability, T/C",[19],25.3%
same,"viability, T/C",[20],27.6%
same,"viability, T/C",[21],32.9%
same,"viability, T/C",[22],26.8%
same,"viability, T/C",[23],26.7%
same,"viability, T/C",[24],23.3%
same,"viability, T/C",[25],22.8%
same,"viability, T/C",[26],22.4%
same,"viability, T/C",[27],23.5%
same,"viability, T/C",[28],24.8%
same,"viability, T/C",[29],22.9%
same,"viability, T/C",[30],21.4%
same,"viability, T/C",[31],21.8%
same,"viability, T/C",[32],21.2%
same,"viability, T/C",[33],19.6%
same,"viability, T/C",[34],19.5%
same,"viability, T/C",[35],20.1%
same,"viability, T/C",[36],18%
same,"viability, T/C",[37],0.08%
same,"viability, T/C",[38],0.13%
same,"viability, T/C",[39],0.17%
same,"viability, T/C",[40],0.14%
same,"viability, T/C",[41],0.19%
same,"viability, T/C",[42],0.16%
